# Assay results reported in patent US7618961B2, “Inhibitors of 11-beta-hydroxy steroid dehydrogenase type 1” (Biovitrum AB, priority 2000, dated 2009).
# Structures can show the parent of a compound that is named as a salt.
row,Compound,melting point
1,"O=C(O)Cc1csc(NS(=O)(=O)c2cc(Cl)sc2Cl)n1 (as salt: salt) [Example 85A, 2-(2-{[(2,5-Dichloro-3-thienyl)sulfonyl]amino}-1,3-thiazol-4-yl)acetic acid]",174 °C
2,"CCOC(=O)Cc1csc(NS(=O)(=O)c2ccc(C)cc2)n1 [Example 5A, Ethyl 2-(2-(((4-methylphenyl)sulfonyl)amino)-1,3-thiazol-4-yl)acetate]",173 °C
3,"CCOC(=O)Cc1csc(NS(=O)(=O)c2ccc(-c3ccccc3)cc2)n1 [Example 10A, Ethyl 2-{2-[([1,1′-biphenyl]-4-ylsulfonyl)amino]-1,3-thiazol-4-yl}acetate]",182 °C
4,"CCOC(=O)Cc1csc(NS(=O)(=O)c2cccc(Br)c2)n1 [Example 12A, Ethyl 2-(2-{[(3-bromophenyl)sulfonyl]amino}-1,3-thiazol-4-yl)acetate]",155 °C
5,"CCOC(=O)Cc1csc(NS(=O)(=O)c2ccccc2C(F)(F)F)n1 [Example 25A, Ethyl [2-({[2-(trifluoromethyl)phenyl]sulfonyl}amino)-1,3-thiazol-4-yl]acetate]",171 °C
6,"CCOC(=O)Cc1csc(NS(=O)(=O)c2cccc(C(F)(F)F)c2)n1 [Example 26A, Ethyl [2-({[3-(trifluoromethyl)phenyl]sulfonyl}amino)-1,3-thiazol-4-yl]acetate]",145 °C
7,"CCOC(=O)Cc1csc(NS(=O)(=O)c2ccc(C(F)(F)F)cc2)n1 [Example 27A, Ethyl [2-({[4-(trifluoromethyl)phenyl]sulfonyl}amino)-1,3-thiazol-4-yl]acetate]",174 °C
8,"CCOC(=O)Cc1csc(NS(=O)(=O)c2ccc(Br)cc2)n1 [Example 28A, Ethyl 2-(2-{[(4-bromophenyl)sulfonyl]amino}-1,3-thiazol-4-yl)acetate]",183 °C
9,"Cc1ccc(S(=O)(=O)Nc2nc(CC(=O)O)cs2)cc1 [Example 84A, 2-(2-{[(4-Methylphenyl)sulfonyl]amino}-1,3-thiazol-4-yl)acetic acid]",187 °C
10,"CNC(=O)Cc1csc(NS(=O)(=O)c2cc(Cl)sc2Cl)n1 [Example 99A, 2-(2-{[(2,5-Dichloro-3-thienyl)sulfonyl]amino}-1,3-thiazol-4-yl)-N-methylacetamide]",183 °C
11,"CCNC(=O)Cc1csc(NS(=O)(=O)c2ccc(F)cc2F)n1 [Example 102A, 2-(2-{[(2,4-Difluorophenyl)sulfonyl]amino}-1,3-thiazol-4-yl)-N-ethylacetamide]",150 °C
12,"Cc1c(Cl)cccc1S(=O)(=O)Nc1nc(CC(=O)NC(c2ccccc2)c2ccccc2)cs1 [Example 113A, N-Benzhydryl-2-(2-{[(3-chloro-2-methylphenyl)sulfonyl]amino}-1,3-thiazol-4-yl)acetamide]",200 °C
13,"Cc1cc(Cl)cc(Cl)c1S(=O)(=O)Nc1nc(CC(=O)N2CCOCC2)c(C)s1 [Example 159A, 2,4-Dichloro-6-methyl-N-{5-methyl-4-[2-(4-morpholinyl)2-oxoethyl]-1,3-thiazol-2-yl}benzenesulfonamide]",186 to 187 °C
14,"Cc1sc(NS(=O)(=O)c2ccc(-c3ccccc3)cc2)nc1CC(=O)N1CCOCC1 [Example 160A, N-{5-methyl-4-[2-(4-morpholinyl)-2-oxoethyl]-1,3-thiazol-2-yl}[1,1′-biphenyl]-4-sulfonamide]",204 to 206 °C
15,"Cc1sc(NS(=O)(=O)c2c(Cl)cc(Cl)cc2Cl)nc1CC(=O)N1CCOCC1 [Example 161A, 2,4,6-trichloro-N-{5-methyl-4-[2-(4-morpholinyl)-2-oxoethyl]-1,3-thiazol-2-yl}benzenesulfonamide]",216 to 217 °C

# Next, values leading:
row,melting point,Compound
1,198 °C,"Cc1c(Cl)cccc1S(=O)(=O)Nc1nc(CC(=O)O)cs1 (as salt: salt) [Example 87A, 2-(2-{[(3-Chloro-2-methylphenyl)sulfonyl]amino}-1,3-thiazol-4-yl)acetic acid]"
2,154 °C,"CCOC(=O)Cc1csc(NS(=O)(=O)c2cccc(Cl)c2C)n1 [Example 8A, Ethyl 2-(2-{[(3-chloro-2-methylphenyl)sulfonyl]amino}-1,3-thiazol-4-yl)acetate]"
3,171 °C,"CCOC(=O)Cc1csc(NS(=O)(=O)c2cc(Cl)ccc2Cl)n1 [Example 77A, Ethyl (2-{[(2,5-dichlorophenyl)sulfonyl]amino}-1,3-thiazol-4-yl)acetate]"
4,176 °C,"O=C(O)Cc1csc(NS(=O)(=O)c2ccccc2Cl)n1 [Example 86A, (2-{[(2-Chlorophenyl)sulfonyl]amino}-1,3-thiazol-4-yl)acetic acid]"
5,189 °C,"Cc1c(Cl)cccc1S(=O)(=O)Nc1nc(CC(=O)Oc2ccccc2)cs1 [Example 89A, Phenyl 2-(2-{[(3-chloro-2-methylphenyl)sulfonyl]amino}-1,3-thiazol-4-yl)acetate]"
6,187 °C,"COC(=O)Cc1csc(NS(=O)(=O)c2cccc(Cl)c2C)n1 [Example 90A, Methyl (2-{[(3-chloro-2-methylphenyl)sulfonyl]amino}-1,3-thiazol-4-yl)acetate]"
7,165 °C,"CNC(=O)Cc1csc(NS(=O)(=O)c2cccc(Cl)c2C)n1 [Example 106A, 2-(2-{[(3-Chloro-2-methylphenyl)sulfonyl]amino}-1,3-thiazol-4-yl)-N-methylacetamide]"
8,96 °C,"CCNC(=O)Cc1csc(NS(=O)(=O)c2cccc(Cl)c2C)n1 [Example 107A, 2-(2-{[(3-Chloro-2-methylphenyl)sulfonyl]amino}-1,3-thiazol-4-yl)-N-ethylacetamide]"
9,202 °C,"Cc1c(Cl)cccc1S(=O)(=O)Nc1nc(CC(=O)Nc2ccccc2)cs1 [Example 108A, 2-(2-{[(3-Chloro-2-methylphenyl)sulfonyl]amino}-1,3-thiazol-4-yl)-N-phenylacetamide]"
10,84 °C,"Cc1c(Cl)cccc1S(=O)(=O)Nc1nc(CC(=O)N(C)C)cs1 [Example 131A, 2-(2-{[(3-Chloro-2-methylphenyl)sulfonyl]amino}-1,3-thiazol-4-yl)-N,N-dimethylacetamide]"
11,107 °C,"Cc1c(Cl)cccc1S(=O)(=O)Nc1nc(CC(=O)N2CCCC2)cs1 [Example 142A, 3-Chloro-2-methyl-N-{4-[2-oxo-2-(1-pyrrolidinyl)ethyl]-1,3-thiazol-2-yl}benzenesulfonamide]"
12,208 to 209 °C,"Cc1c(Cl)cccc1S(=O)(=O)Nc1nc(CC(=O)N2CCOCC2)cs1 [Example 148A, 3-Chloro-2-methyl-N-{4-[2-(4-morpholinyl)-2-oxoethyl]-1,3-thiazol-2-yl}benzenesulfonamide]"
13,194 to 195 °C,"Cc1sc(NS(=O)(=O)c2cccc(Cl)c2C)nc1CC(=O)N1CCOCC1 [Example 162A, 3-chloro-2-methyl-N-{5-methyl-4-[2-(4-morpholinyl)-2-oxoethyl]-1,3-thiazol-2-yl}benzenesulfonamide]"
14,103 to 106 °C,"Cc1c(Cl)cccc1S(=O)(=O)Nc1nc(CC(=O)N2CCSCC2)cs1 [Example 165A, 3-Chloro-2-methyl-N-{4-[2-oxo-2-(4-thiomorpholinyl)ethyl]-1,3-thiazol-2-yl}benzenesulfonamide]"
